Test results: PubChem BioAssay AID298 (DTP/NCI, 2004)
Where “and” joins values, the source holds several entries; their conditions need not be identical. Equal entries are not always repeated. Results filed as inconclusive are left out.

Test system: MX-1 breast xenograft, intrarenal, nude mice, tumor weight
Assay: NCI In Vivo Anticancer Drug Screen. Data for tumor model Human Mammary Carcinoma MX-1 Xenograft (intrarenal inoculation) in NU/NU BALB/C (nude) mice
Settings: endpoint: mean tumor weight change, higher = larger tumour
Experimental: The antitumor activity of compounds was measured in mice bearing transplantable tumors. Survival or tumor size were measured and the results are expressed as the measurement made in the treated group (T) divided by the measurement made in the vehicle treated control group (C). The tumor model used in this assay is Human Mammary Carcinoma MX-1 Xenograft (intrarenal inoculation) in NU/NU BALB/C (nude) mice

## COc1cc([C@@H]2c3cc4c(cc3[C@@H](OC3OC5COC(C)OC5C(O)C3O)[C@H]3COC(=O)[C@H]23)OCO4)cc(OC)c1O (some centres not stated)
dose: 2.0 mg/kg/injection, schedule: Q01DX010 (ip), vehicle: saline
  T/C: 58 % of control and 62 % of control
dose: 4.0 mg/kg/injection, schedule: Q01DX010 (ip), vehicle: saline
  T/C: 23 % of control and 30 % of control
dose: 8.0 mg/kg/injection, schedule: Q01DX010 (ip), vehicle: saline
  T/C: 5 % of control and 20 % of control
dose: 16.0 mg/kg/injection, schedule: Q01DX010 (ip), vehicle: saline
  T/C: 4 % of control and 6 % of control
dose: 64.0 mg/kg/injection, schedule: Q04DX003 (ip), vehicle: saline
  T/C: 76 % of control

## CCC1(O)C(=O)OCc2c1cc1n(c2=O)Cc2cc3cc(N)ccc3nc2-1 (configuration not stated)
dose: 1.88 mg/kg/injection, schedule: Q04DX003 (ip), vehicle: suspension in saline
  T/C: 5 % of control
dose: 3.75 mg/kg/injection, schedule: Q04DX003 (ip), vehicle: suspension in saline
  T/C: 1 % of control
dose: 7.5 mg/kg/injection, schedule: Q04DX003 (ip), vehicle: suspension in saline
  T/C: -100 % of control
dose: 15.0 mg/kg/injection, schedule: Q04DX003 (ip), vehicle: suspension in saline
  T/C: -100 % of control

## CCC(=O)N(C)[C@@H](C)C(=O)O[C@H]1CC(=O)N(C)c2cc(cc(OC)c2Cl)C/C(C)=C/C=C[C@@H](OC)[C@@]2(O)C[C@H](OC(=O)N2)[C@@H](C)[C@@H]2O[C@@]12C
dose: 0.12 mg/kg/injection, schedule: Q04DX003 (sc), vehicle: saline + alcohol
  T/C: 100 % of control
dose: 0.25 mg/kg/injection, schedule: Q04DX003 (sc), vehicle: saline + alcohol
  T/C: 48 % of control
dose: 0.5 mg/kg/injection, schedule: Q04DX003 (sc), vehicle: saline + alcohol
  T/C: 5 % of control
dose: 7.5 micrograms/kg/injection, schedule: Q04DX004 (ip), vehicle: saline + alcohol
  T/C: 115 % of control
dose: 15.0 micrograms/kg/injection, schedule: Q04DX004 (ip), vehicle: saline + alcohol
  T/C: 67 % of control

## CN(C)CCC(=O)C(=Cc1ccc(O)cc1)C(=O)CCN(C)C
dose: 75.0 mg/kg/injection, schedule: Q04DX003 (ip), vehicle: saline
  T/C: 90 % of control
dose: 150.0 mg/kg/injection, schedule: Q04DX003 (ip), vehicle: saline
  T/C: 124 % of control

## NC(=O)SCC(N)C(=O)O (configuration not stated)
dose: 300.0 mg/kg/injection, schedule: Q04DX003 (ip), vehicle: saline
  T/C: 88 % of control
dose: 400.0 mg/kg/injection, schedule: Q04DX003 (sc), vehicle: saline
  T/C: 49 % of control
dose: 600.0 mg/kg/injection, schedule: Q04DX003 (ip), vehicle: saline
  T/C: 80 % of control
dose: 600.0 mg/kg/injection, schedule: Q04DX003 (sc), vehicle: saline
  T/C: 37 % of control and 52 % of control
dose: 750.0 mg/kg/injection, schedule: Q04DX003 (sc), vehicle: saline
  T/C: 53 % of control
dose: 900.0 mg/kg/injection, schedule: Q04DX003 (sc), vehicle: saline
  T/C: 16 % of control and 38 % of control

## O=C1C=CC(=CC=C2C=CN(CCCCCCCCCCCO)C=C2)C=C1
dose: 12.5 mg/kg/injection, schedule: Q04DX003 (ip), vehicle: saline with Tween-80
  T/C: 89 % of control
dose: 25.0 mg/kg/injection, schedule: Q04DX003 (ip), vehicle: saline with Tween-80
  T/C: 84 % of control
dose: 50.0 mg/kg/injection, schedule: Q04DX003 (ip), vehicle: saline with Tween-80
  T/C: 69 % of control

## CNc1nc(N(C)C)nc(N(C)C)n1
dose: 30.0 mg/kg/injection, schedule: Q01DX010 (sc), vehicle: water
  T/C: 1 % of control
dose: 60.0 mg/kg/injection, schedule: Q01DX010 (sc), vehicle: water
  T/C: -31 % of control
dose: 120.0 mg/kg/injection, schedule: Q01DX010 (sc), vehicle: water
  T/C: -94 % of control

## N#Cc1c(-c2ccc(F)cc2)c(-c2ccc(F)cc2)nn(CCO)c1=O
dose: 50.0 mg/kg/injection, schedule: Q04DX003 (ip), vehicle: distilled water + Tween-80
  T/C: 109 % of control
dose: 400.0 mg/kg/injection, schedule: Q04DX003 (ip), vehicle: distilled water + Tween-80
  T/C: -28 % of control

## C=C1C(O)C2(O)OCC34C(CC5C(C)=CC(=O)C(O)C5(C)C23)OC(=O)C(OC(=O)C/C=C(\C)CCCCC)C14 (configuration not stated)
dose: 1.5 mg/kg/injection, schedule: Q04DX003 (ip), vehicle: saline + alcohol
  T/C: 69 % of control
dose: 3.0 mg/kg/injection, schedule: Q04DX003 (ip), vehicle: saline + alcohol
  T/C: 87 % of control
dose: 6.0 mg/kg/injection, schedule: Q04DX003 (ip), vehicle: saline + alcohol
  T/C: 47 % of control
dose: 12.0 mg/kg/injection, schedule: Q04DX003 (ip), vehicle: saline + alcohol
  T/C: 43 % of control

## C=Cc1cc(OC)c2c(c1)c(=O)oc1c2cc(OC)c2c(O)ccc(C3OC(C(C)O)C(O)C3O)c21 (configuration not stated)
dose: 37.5 mg/kg/injection, schedule: Q04DX003 (ip), vehicle: Klucel (hydroxypropylcellulose) (HPC)
  T/C: 91 % of control
dose: 75.0 mg/kg/injection, schedule: Q04DX003 (ip), vehicle: Klucel (hydroxypropylcellulose) (HPC)
  T/C: 51 % of control and 70 % of control
dose: 300.0 mg/kg/injection, schedule: Q04DX003 (ip), vehicle: Klucel (hydroxypropylcellulose) (HPC)
  T/C: 28 % of control and 29 % of control

## CCN(CC)CC(=O)O[C@]1(CC)C(=O)OCc2c1cc1n(c2=O)Cc2cc3ccccc3nc2-1
dose: 2.0 mg/kg/injection, schedule: Q04DX003 (ip), vehicle: other
  T/C: 35 % of control
dose: 2.0 mg/kg/injection, schedule: Q04DX003 (ip), vehicle: water
  T/C: 29 % of control
dose: 4.0 mg/kg/injection, schedule: Q04DX003 (ip), vehicle: other
  T/C: 19 % of control
dose: 4.0 mg/kg/injection, schedule: Q04DX003 (ip), vehicle: water
  T/C: 13 % of control
dose: 8.0 mg/kg/injection, schedule: Q04DX003 (ip), vehicle: other
  T/C: 1 % of control
dose: 16.0 mg/kg/injection, schedule: Q04DX003 (ip), vehicle: other
  T/C: -56 % of control
dose: 16.0 mg/kg/injection, schedule: Q04DX003 (ip), vehicle: water
  T/C: -100 % of control

## O=C(Nc1cccc(O)c1)C(Cl)=C(Cl)Cl
dose: 6.25 mg/kg/injection, schedule: Q04DX003 (ip), vehicle: other
  T/C: 66 % of control
dose: 12.5 mg/kg/injection, schedule: Q04DX003 (ip), vehicle: DMSO
  T/C: 112 % of control
dose: 12.5 mg/kg/injection, schedule: Q04DX003 (ip), vehicle: other
  T/C: 68 % of control
dose: 25.0 mg/kg/injection, schedule: Q04DX003 (ip), vehicle: DMSO
  T/C: 116 % of control
dose: 25.0 mg/kg/injection, schedule: Q04DX003 (ip), vehicle: other
  T/C: 45 % of control
dose: 50.0 mg/kg/injection, schedule: Q04DX003 (ip), vehicle: DMSO
  T/C: 47 % of control

## NCCCN=c1ccc2c3c1c(O)c1c(O)ccc(=O)c1c3[nH]n2CCNCCO
dose: 9.35 mg/kg/injection, schedule: Q04DX003 (ip), vehicle: water
  T/C: 19 % of control
dose: 9.38 mg/kg/injection, schedule: Q04DX003 (ip), vehicle: water
  T/C: 11 % of control
dose: 18.75 mg/kg/injection, schedule: Q04DX003 (ip), vehicle: water
  T/C: -33 % of control and -19 % of control and -16 % of control
dose: 37.5 mg/kg/injection, schedule: Q04DX003 (ip), vehicle: water
  T/C: -87 % of control and -83 % of control and -100 % of control

## Clc1ccc(CN2COc3c(ccc4cccnc34)C2)cc1Cl
dose: 100.0 mg/kg/injection, schedule: Q01DX010 (sc), vehicle: saline with Tween-80
  T/C: 91 % of control
dose: 400.0 mg/kg/injection, schedule: Q01DX010 (sc), vehicle: saline with Tween-80
  T/C: 71 % of control
dose: 800.0 mg/kg/injection, schedule: Q01DX010 (sc), vehicle: saline with Tween-80
  T/C: 44 % of control
